“Also recorded” adds a separate entry of the source.
What was measured:
BHK cells = assay: Mitochondrial dehydrogenase activity (MTT); type: cell-based, hamster
rat cortical neurons = assay: Oxygen and glucose deprivation (OGD) followed by reoxygenation; type: cell-based; conditions: 10 nM; 3 hours OGD followed by 21 hours of reoxygenation
Protocol: The effect of neurounina-1 was evaluated on cell viability by using rat primary cortical neurons obtained as follow. Briefly, cortical neurons were prepared from brains of 1-2 day-old new-born rats, anaesthetizes with halothane in a glass chamber and decapitated. Dissection and dissociation were performed in a Ca^2+-Mg^2+-free PBS containing glucose. The brain was removed from the skull and the cerebral cortex was removed. Cerebral cortex was first digested enzymatically and after dispersed mechanically by trituration. Cellular suspension was plated on coverslips previously pre-coated with poly-D-lysine 1mg/ml and cultured in "Neurobasal" medium containing B27 (1:50) and Glutamax)1:100).
The oxygen and glucose deprivation (OGD) was used as a model to reproduce in vitro a condition similar to that observed in vivo when a cerebral vessel was occluded as it occurs in stroke. Briefly, cells were incubated in a medium oxygen and glucose-free and containing: NaCl 116 mM, KCI 5.4 mM, MgSO4 0.8 mM, NaHCO3 26.2 mM, NaH2PO4 1 mM, CaCl2 1.8 mM, glycin 0.01 mM e phenol 0.001 mM (w/v) (Molinaro et al., 2008). This medium was previously saturated with 1 atm of a gas containing 95% N2 and 5% CO2 for 20 minutes. […]

NCX2 = molecular target: T1, NCX2 (Rattus norvegicus, UniProt P48768); assay: 45Ca2+ radiotracer fluxes (efflux/influx) in BHK-NCX2 cells; type: cell-based
T1 construct: expressed in transfected cells
T1 sequence (P48768 21-921): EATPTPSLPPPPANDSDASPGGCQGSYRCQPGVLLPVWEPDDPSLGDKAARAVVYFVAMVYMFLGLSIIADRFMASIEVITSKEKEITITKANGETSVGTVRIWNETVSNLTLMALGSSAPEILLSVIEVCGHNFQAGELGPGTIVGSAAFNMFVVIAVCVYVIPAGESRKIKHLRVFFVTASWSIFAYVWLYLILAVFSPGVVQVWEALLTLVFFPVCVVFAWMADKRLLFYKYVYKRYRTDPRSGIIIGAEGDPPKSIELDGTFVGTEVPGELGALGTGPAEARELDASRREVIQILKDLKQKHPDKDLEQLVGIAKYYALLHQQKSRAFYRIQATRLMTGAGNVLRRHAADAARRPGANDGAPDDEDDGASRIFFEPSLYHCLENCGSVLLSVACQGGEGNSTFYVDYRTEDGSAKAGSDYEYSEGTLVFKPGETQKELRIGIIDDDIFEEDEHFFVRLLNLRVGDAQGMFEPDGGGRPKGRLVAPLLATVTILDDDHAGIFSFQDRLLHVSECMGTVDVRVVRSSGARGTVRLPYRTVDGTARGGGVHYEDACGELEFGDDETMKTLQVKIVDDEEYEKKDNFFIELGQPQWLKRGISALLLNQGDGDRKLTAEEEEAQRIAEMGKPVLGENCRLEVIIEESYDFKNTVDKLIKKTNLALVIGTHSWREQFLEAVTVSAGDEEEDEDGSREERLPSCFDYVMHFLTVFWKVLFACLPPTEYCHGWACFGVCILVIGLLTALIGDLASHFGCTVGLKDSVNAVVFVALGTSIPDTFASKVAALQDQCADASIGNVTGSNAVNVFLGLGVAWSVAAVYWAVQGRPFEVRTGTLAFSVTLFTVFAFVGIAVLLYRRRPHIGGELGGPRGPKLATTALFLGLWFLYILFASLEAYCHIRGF
Protocol: The activity of NCX was established by means of three different subclones of baby hamsted kidney (BHK) cells that were stably transfected with one of each NCX isoforms, named BHK-NCX1, BHK-NCX2 and BHK-NCX3. These cell lines were grown on plastic dishes in a mix of DMEM and Ham's F12 media (1:1) (Gibco, Invitrogen, MI, Italy) supplemented with 5% fetal bovine serum, 100 U/ml penicillin, and 100 µg/ml streptomycin (Sigma, St. Louis, Missouri, USA). Cells were cultured in a humidified 5% CO2 atmosphere and at the temperature of 37°C.
The activity of the Na^+/Ca^2+ exchanger was measured by means of ^45Ca^2+ radiotracer variations in the cytoplasm of cells exposed to a protocol stimulating the forward or the reverse mode of the antiporter. The BHK cells expressing each mutated or non-mutated NCX isoform were cultured in 12-well dishes and incubated in 145 mM NaCl for 10 minutes and then in a medium containing only 145 mM N-Methyl D-glucamine (NMDG) and 10 µM of ^45Ca^2+. This rapid substitution of the medium from a high level of Na^+ to another one without Na^+ allow the ^45Ca^2+ influx (reverse mode). Before the medium substitution cells was incubated with 1 mM ouabain, a Na^+/K^+ pump inhibitor, and 10 µM monensin, a ionophore for extracellular Na^+. After 30 seconds incubation, cells were washed with an ice-cold solution containing 2 mM La^3+ to stop ^45Ca^2+ uptake. The medium was removed and cells were subsequently lysed with 0.1 N NaOH and aliquots were taken to determine radioactivity and protein content.
In order to measure NCX activity in the forward mode, cells were firstly loaded with ^45Ca^2+ and subsequently exposed to a chemical protocol to stimulate the efflux of the radiotracer in the extracellular medium. In particular, cells were loaded with ^45Ca^2+ by using a solution containing 1 µM ionomycin, 145 mM Na^+ and ^45Ca^2+. Next, cells were exposed to a Ca^2+-free solution containing 2 mM EGTA. One µM thapsigargin, a Ca^2+-ATPase inhibitor, was present in both solutions in order to prevent ^45Ca^2+ influx in intracellular organelles. After 60 second, cells were lysed with […] NaOH and aliquots were taken to determine cytoplasmatic radioactivity.
Cells were incubated for 30 minutes with different neurounina-1 concentrations.

Compound: O=C1CN=C(c2ccccc2)c2cc([N+](=O)[O-])ccc2N1CN1CCCC1 [neurounina-1, 7-nitro-5-phenyl-1-(pyrrolidin-1-ylmethyl)-1H-benzo[e][1,4]diazepin-2(3H)-one]
- non-toxic concentration relative to EC50 (BHK cells; 10 µM versus EC50): ~10.000 times
- mitochondrial activity (BHK cells; 10 µM, 24 hours, BHK cells): did not show any toxic effect; also recorded: did not affect
- cell death of rat cortical neurons (rat cortical neurons): reduced cell death
- increase of forward mode of NCX2 activity (NCX2; 45Ca2+ radiotracer, forward mode): 30%
- increase of reverse mode NCX2 activity (NCX2; 45Ca2+ radiotracer, reverse mode): 40%
- EC50 (NCX2; EC50 NCX2, reverse mode, 45Ca2+ radiotracer, reverse mode): 2.7 nM
- EC50 (NCX2; EC50 for NCX2, forward mode, 45Ca2+ radiotracer, forward mode): 1.7 nM
- EC50 (NCX2; EC50 su NCX2, from the functional assays (summary)): 1 to 2 nM
- NCX2 activity (NCX2; forward and reverse mode, patch clamp, Fura-2 microfluorimetry and 45Ca2+ fluxes (summary)): increases, in a dose-dependent manner

From patent publication EP2646421B1, “7-NITRO-5-PHENYL-1-(PYRROLIDIN-1-YLMETHYL)-1H-BENZO[E][1,4]DIAZEPIN-2(3H)-ONE AND OTHER BENZODIAZEPINE DERIVATIVES” (Pignataro, Giuseppe, priority 2010, dated 2012)
